The source of these data is ChEMBL document CHEMBL5390198, “Scaffold hopping of N-benzyl-3,4,5-trimethoxyaniline: 5,6,7-Trimethoxyflavan derivatives as novel potential anticancer agents modulating hippo signaling pathway” (2023).

Common to all, as to type: functional
The test system of experiment [1] is NCI-H23. The experiment is described as follows: cells. The conditions noted are these: Homo sapiens, time 24-72 hrs.
Description: Antiproliferative activity against human NCI-H23 cells assessed as inhibition of cell growth at 10 uM measured after 24 to 72 hrs by SRB method relative to control
For experiment [2], the system named is A549. Briefly: cells. As to conditions: Homo sapiens, time 24-72 hrs.
Description: Antiproliferative activity against human A549 cells assessed as inhibition of cell growth at 10 uM measured after 24 to 72 hrs by SRB method relative to control
The subject of experiment [3] is K562. Briefly: Antiproliferative activity against human K562 cells assessed as inhibition of cell growth at 10 uM measured after 24 to 72 hrs by SRB method relative to control. The conditions noted are these: time 24-72 hrs. For orientation: The SRB assay estimates cell density from bound dye.
Experiment [4] has as its system NCI-H460. Briefly: cells. As to conditions: Homo sapiens, time 24-72 hrs.
Description: Antiproliferative activity against human NCI-H460 cells assessed as inhibition of cell growth at 10 uM measured after 24 to 72 hrs by SRB method relative to control
Experiment [5] has as its system NCI-H322M. Briefly: Antiproliferative activity against human NCI-H322M cells assessed as inhibition of cell growth at 10 uM measured after 24 to 72 hrs by SRB method relative to control. The conditions noted are these: time 24-72 hrs.
The test system of experiment [6] is HL-60. The experiment is described as follows: Antiproliferative activity against human HL-60 cells assessed as inhibition of cell growth at 10 uM measured after 24 to 72 hrs by SRB method relative to control. The conditions noted are these: time 24-72 hrs.
Experiment [7] concerns HOP-92. Briefly: cells. The conditions noted are these: Homo sapiens, time 24-72 hrs.
Description: Antiproliferative activity against human HOP-92 cells assessed as inhibition of cell growth at 10 uM measured after 24 to 72 hrs by SRB method relative to control
In experiment [8] the test system is RPMI-8226. Briefly: Antiproliferative activity against human RPMI-8226 cells assessed as inhibition of cell growth at 10 uM measured after 24 to 72 hrs by SRB method relative to control. As to conditions: time 24-72 hrs.
In experiment [9] the test system is NCI-H522. Briefly: Antiproliferative activity against human NCI-H522 cells assessed as inhibition of cell growth at 10 uM measured after 24 to 72 hrs by SRB method relative to control. The conditions noted are these: time 24-72 hrs.
The subject of experiment [10] is MOLT-4. Briefly: Antiproliferative activity against human MOLT-4 cells assessed as inhibition of cell growth at 10 uM measured after 24 to 72 hrs by SRB method relative to control. As to conditions: time 24-72 hrs.
Experiment [11] deals with EKVX. The experiment is described as follows: cells. The conditions noted are these: Homo sapiens, time 24-72 hrs.
Description: Antiproliferative activity against human EKVX cells assessed as inhibition of cell growth at 10 uM measured after 24 to 72 hrs by SRB method relative to control
The test system of experiment [12] is HOP-62. Briefly: Antiproliferative activity against human HOP-62 cells assessed as inhibition of cell growth at 10 uM measured after 24 to 72 hrs by SRB method relative to control. As to conditions: time 24-72 hrs.
For experiment [13], the system named is SR. Briefly: Antiproliferative activity against human SR cells assessed as inhibition of cell growth at 10 uM by measured after 24 to 72 hrs SRB method relative to control. The conditions noted are these: time 24-72 hrs.
Experiment [14] has as its system NCI-H226. Briefly: cells. The conditions noted are these: Homo sapiens, time 24-72 hrs.
Description: Antiproliferative activity against human NCI-H226 cells assessed as inhibition of cell growth at 10 uM measured after 24 to 72 hrs by SRB method relative to control
Experiment [15] has as its system CCRF-CEM. Briefly: Antiproliferative activity against human CCRF-CEM cells assessed as inhibition of cell growth at 10 uM measured after 24 to 72 hrs by SRB method relative to control. The conditions noted are these: time 24-72 hrs.
For experiment [16], the system named is SF-295. Briefly: Growth inhibition of human SF-295 cells measured after 24 to 72 hrs by SRB method. The conditions noted are these: time 24-72 hrs.
Experiment [17] relates to SNB-19. The experiment is described as follows: Growth inhibition of human SNB-19 cells measured after 24 to 72 hrs by SRB method. As to conditions: time 24-72 hrs.
Experiment [18] concerns SF-268. The experiment is described as follows: Growth inhibition of human SF-268 cells measured after 24 to 72 hrs by SRB method. The conditions noted are these: time 24-72 hrs.
Experiment [19] relates to U-251. Briefly: Growth inhibition of human U-251 cells measured after 24 to 72 hrs by SRB method. As to conditions: time 24-72 hrs.
The subject of experiment [20] is MDA-MB-435. The experiment is described as follows: Growth inhibition of human MDA-MB-435 cells measured after 24 to 72 hrs by SRB method. The conditions noted are these: time 24-72 hrs.
For experiment [21], the system named is SK-MEL-28. The experiment is described as follows: Growth inhibition of human SK-MEL-28 cells measured after 24 to 72 hrs by SRB method. As to conditions: time 24-72 hrs.
Experiment [22] concerns PC-3. The experiment is described as follows: Growth inhibition of human PC-3 cells measured after 24 to 72 hrs by SRB method. As to conditions: time 24-72 hrs.
The subject of experiment [23] is DU-145. Briefly: Growth inhibition of human DU-145 cells measured after 24 to 72 hrs by SRB method. The conditions noted are these: time 24-72 hrs.

Broadly, the inhibition is how much of the control response was suppressed. Turning to `COc1ccc(C(=O)Nc2cccc(C3CCc4c(cc(OC)c(OC)c4OC)O3)c2)cc1` (stereo not drawn), the inhibition at 10 µM is 41.1% in experiment [1]; 56.6% in [2]; greater than 60% in [3]; 74.3% in experiment [4]; 24.1% in experiment [5]; greater than 60% in experiment [6]. Moreover, the inhibition at 10 µM is 38.7% in experiment [7]; greater than 60% in experiment [8]; 57.3% in experiment [9]; greater than 60% in experiment [10]; 45.3% in experiment [11]; 60.2% in experiment [12]. Moreover, the inhibition at 10 µM in experiment [13] is greater than 60%; in experiment [14] it was 69.9%; in experiment [15] it was greater than 60%.
Broadly, the GI50 is the concentration giving 50% growth inhibition. A high value points to lower sensitivity of the cells. For `Cn1nnc2c(C(N)=O)ncn2c1=O` [TEMOZOLOMIDE], the GI50 in [16], in experiment [17], in [18] and in [19] was greater than 100 µM in each case.
For the molecule `CN(C)/N=N/c1[nH]cnc1C(N)=O` [DACARBAZINE], the figures for the 50% growth inhibitory concentration (GI50) in [20] and in experiment [21] were 84.3 µM and greater than 100 µM, respectively.
Regarding `CNC(=O)c1ccc(N2C(=S)N(c3ccc(C#N)c(C(F)(F)F)c3)C(=O)C2(C)C)cc1F` [ENZALUTAMIDE], the GI50 is 22 µM in experiment [22] and greater than 31 µM in experiment [23].
